Assay results published in US9302999B2, “Substituted triazoles as herbicides” (E. I. DU PONT DE NEMOURS AND COMPANY, priority 2012, dated 2016).

Legend:
Type in all cases: in vivo
[1] = tested on: ducksalad (Heteranthera limosa); experiment: Test C flooded paddy test: ducksalad; conditions: scale 0 to 100 (0 no effect, 100 complete control)
Summary of the method: (§1)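 Greenhouse plants treated at the 2-leaf stage by dosing the flood water (3 cm depth, maintained) were compared with controls after 13 to 15 days and rated 0 to 100, where 100 means complete control; a dash marks no test result.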

[2] = tested on: barnyardgrass (Echinochloa crus-galli); experiment: Test A pre-/postemergence: barnyardgrass
Summary of the method: (§2)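 Whole-plant greenhouse assay in loam/sand. Preemergence directed soil spray plus simultaneous postemergence spray (one- to two-leaf stage, 2–10 cm). Rated visually ~10 days later, 0 = no effect, 100 = complete control.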

[3] = tested on: barnyardgrass (Echinochloa crus-galli); experiment: Test C flooded paddy test: barnyardgrass; conditions: scale 0 to 100 (0 no effect, 100 complete control)
Summary of the method: as §1

[4] = tested on: crabgrass, large (large crabgrass, Digitaria sanguinalis); experiment: Test A pre-/postemergence: crabgrass, large
Summary of the method: as §2

rice (Oryza sativa) = experiment: Test C flooded paddy test: rice; conditions: scale 0 to 100 (0 no effect, 100 complete control)
Summary of the method: as §1

[5] = tested on: velvetleaf (Abutilon theophrasti); experiment: Test A pre-/postemergence: velvetleaf
Summary of the method: as §2

[6] = tested on: morningglory (Ipomoea spp.); experiment: Test A pre-/postemergence: morningglory
Summary of the method: as §2

corn (Zea mays) = experiment: Test A pre-/postemergence: corn
Summary of the method: as §2

[7] = tested on: wheat (Triticum aestivum); experiment: Test A pre-/postemergence: wheat
Summary of the method: as §2

[8] = tested on: pigweed (Amaranthus retroflexus); experiment: Test A pre-/postemergence: pigweed
Summary of the method: as §2

[9] = tested on: foxtail, giant (giant foxtail, Setaria faberii); experiment: Test A pre-/postemergence: foxtail, giant
Summary of the method: as §2

[10] = tested on: sedge, umbrella (small-flower umbrella sedge, Cyperus difformis); experiment: Test C flooded paddy test: sedge, umbrella; conditions: scale 0 to 100 (0 no effect, 100 complete control)
Summary of the method: as §1

[11] = Flood (flooded paddy test), 125 g ai/ha, visual rating after 13 to 15 days
[12] = Flood (flooded paddy test), 250 g ai/ha, visual rating after 13 to 15 days
[13] = Postemergence, 125 g ai/ha, 0 to 100 scale, 0 is no effect, 100 is complete control
[14] = Postemergence, 500 g ai/ha, visual rating on 0 to 100 scale (0 no effect, 100 complete control), approximately ten days
[15] = Preemergence, 125 g ai/ha, 0 to 100 scale (0 no effect, 100 complete control)
[16] = Preemergence, 500 g ai/ha, 0 to 100 scale, 0 is no effect, 100 is complete control
[17] = Preemergence, 125 g ai/ha, 0 to 100 scale where 0 is no effect and 100 is complete control
[18] = Postemergence, 1000 g ai/ha, visual rating on 0 to 100 scale (0 no effect, 100 complete control), approximately ten days
[19] = Preemergence, 1000 g ai/ha, 0 to 100 scale, 0 is no effect, 100 is complete control

**Q.** Which results are given for `CSc1ccc(-n2nc(C)c(C(=O)c3cccc(C(F)(F)F)c3)n2)cc1` [Compound 93]?
**A.** Plant response rating, Ducksalad [1, 11]: 0; Plant response rating, Ducksalad [1, 12]: 0; Plant response rating, Ducksalad ([1]; Flood, 31 g ai/ha): 0; Plant response rating, Ducksalad ([1]; Flood, 62 g ai/ha): 0; Barnyardgrass plant response rating [2, 13]: 0; Barnyardgrass plant response rating [2, 14]: 10; Plant response rating, Barnyardgrass [2, 15]: 0; Plant response rating, Barnyardgrass [2, 16]: 0; Plant response rating, Barnyardgrass [3, 11]: 0; Plant response rating, Barnyardgrass [3, 12]: 0; Plant response rating, Barnyardgrass ([3]; Flood, 31 g ai/ha): 0; Plant response rating, Barnyardgrass ([3]; Flood, 62 g ai/ha): 0; Crabgrass, Large plant response rating [4, 13]: 10; Crabgrass, Large plant response rating [4, 14]: 20; Plant response rating, Crabgrass, Large [4, 15]: 0; Plant response rating, Crabgrass, Large [4, 16]: 0; Plant response rating, Rice (rice (Oryza sativa); [11]): 0; Plant response rating, Rice (rice (Oryza sativa); [12]): 0; Plant response rating, Rice (rice (Oryza sativa); Flood, 31 g ai/ha): 0; Plant response rating, Rice (rice (Oryza sativa); Flood, 62 g ai/ha): 0; Velvetleaf plant response rating [5, 13]: 10; Velvetleaf plant response rating [5, 14]: 20; Plant response rating, Velvetleaf [5, 17]: 0; Plant response rating, Velvetleaf [5, 16]: 0; Morningglory plant response rating [6, 13]: 0; Morningglory plant response rating [6, 14]: 10; Plant response rating, Morningglory [6, 17]: 0; Plant response rating, Morningglory [6, 16]: 0; Corn plant response rating (corn (Zea mays); [13]): 10; Corn plant response rating (corn (Zea mays); [14]): 10; Plant response rating, Corn (corn (Zea mays); [15]): 0; Plant response rating, Corn (corn (Zea mays); [16]): 0; Wheat plant response rating [7, 13]: 0; Wheat plant response rating [7, 14]: 0; Plant response rating, Wheat [7, 17]: 0; Plant response rating, Wheat [7, 16]: 0; Pigweed plant response rating [8, 13]: 10; Pigweed plant response rating [8, 14]: 20; Plant response rating, Pigweed [8, 17]: 0; Plant response rating, Pigweed [8, 16]: 0; Foxtail, Giant plant response rating [9, 13]: 10; Foxtail, Giant plant response rating [9, 14]: 10; Plant response rating, Foxtail, Giant [9, 17]: 0; Plant response rating, Foxtail, Giant [9, 16]: 0; Plant response rating, Sedge, Umbrella [10, 11]: 0; Plant response rating, Sedge, Umbrella [10, 12]: 0; Plant response rating, Sedge, Umbrella ([10]; Flood, 31 g ai/ha): 0; Plant response rating, Sedge, Umbrella ([10]; Flood, 62 g ai/ha): 0

**Q.** How did the “Plant response rating, Ducksalad” value [1, 11] turn out when `CCc1nn(-c2ccc(C(F)(F)F)cn2)nc1Cc1cccc(C(F)(F)F)c1` [Compound 108] was run?
**A.** Its value is 30.

**Q.** What about the “Plant response rating, Ducksalad” value [1, 12] of the same compound?
**A.** Its value is 45.

**Q.** What about the “Plant response rating, Ducksalad” value ([1]; Flood, 31 g ai/ha) of the same compound?
**A.** Its value is 0.

**Q.** And the “Plant response rating, Ducksalad” value ([1]; Flood, 62 g ai/ha)?
**A.** Its value is 0.

**Q.** And the “Barnyardgrass plant response rating” value [2, 13]?
**A.** Its value is 40.

**Q.** What about the “Barnyardgrass plant response rating” value [2, 14] of the same compound?
**A.** Its value is 70.

**Q.** And the “Plant response rating, Barnyardgrass” value [2, 15]?
**A.** Its value is 30.

**Q.** And the “Plant response rating, Barnyardgrass” value [2, 16]?
**A.** The value was 80.

**Q.** What about the “Plant response rating, Barnyardgrass” value [3, 11] of the same compound?
**A.** The value was 20.

**Q.** What about the “Plant response rating, Barnyardgrass” value [3, 12] of the same compound?
**A.** The value was 30.

**Q.** And the “Plant response rating, Barnyardgrass” value ([3]; Flood, 31 g ai/ha)?
**A.** Its value is 0.

**Q.** What about the “Plant response rating, Barnyardgrass” value ([3]; Flood, 62 g ai/ha) of the same compound?
**A.** The value was 0.

**Q.** What about the “Crabgrass, Large plant response rating” value [4, 13] of the same compound?
**A.** Its value is 90.

**Q.** And the “Crabgrass, Large plant response rating” value [4, 14]?
**A.** Its value is 90.

**Q.** What about the “Plant response rating, Crabgrass, Large” value [4, 15] of the same compound?
**A.** Its value is 90.

**Q.** And the “Plant response rating, Crabgrass, Large” value [4, 16]?
**A.** Its value is 100.

**Q.** What about the “Plant response rating, Rice” value (rice (Oryza sativa); [11]) of the same compound?
**A.** Its value is 15.

**Q.** What about the “Plant response rating, Rice” value (rice (Oryza sativa); [12]) of the same compound?
**A.** Its value is 20.

**Q.** What about the “Plant response rating, Rice” value (rice (Oryza sativa); Flood, 31 g ai/ha) of the same compound?
**A.** The value was 0.

**Q.** What about the “Plant response rating, Rice” value (rice (Oryza sativa); Flood, 62 g ai/ha) of the same compound?
**A.** The value was 0.

**Q.** What about the “Velvetleaf plant response rating” value [5, 13] of the same compound?
**A.** The value was 60.

**Q.** And the “Velvetleaf plant response rating” value [5, 14]?
**A.** The value was 80.

**Q.** What about the “Plant response rating, Velvetleaf” value [5, 17] of the same compound?
**A.** The value was 0.

**Q.** What about the “Plant response rating, Velvetleaf” value [5, 16] of the same compound?
**A.** The value was 20.

**Q.** What about the “Morningglory plant response rating” value [6, 13] of the same compound?
**A.** Its value is 100.

**Q.** What about the “Morningglory plant response rating” value [6, 14] of the same compound?
**A.** The value was 100.

**Q.** What about the “Plant response rating, Morningglory” value [6, 17] of the same compound?
**A.** The value was 0.

**Q.** What about the “Plant response rating, Morningglory” value [6, 16] of the same compound?
**A.** Its value is 20.

**Q.** What about the “Corn plant response rating” value (corn (Zea mays); [13]) of the same compound?
**A.** The value was 20.

**Q.** And the “Corn plant response rating” value (corn (Zea mays); [14])?
**A.** The value was 30.

**Q.** What about the “Plant response rating, Corn” value (corn (Zea mays); [15]) of the same compound?
**A.** The value was 0.

**Q.** What about the “Plant response rating, Corn” value (corn (Zea mays); [16]) of the same compound?
**A.** Its value is 0.

**Q.** And the “Wheat plant response rating” value [7, 13]?
**A.** The value was 20.

**Q.** And the “Wheat plant response rating” value [7, 14]?
**A.** Its value is 30.

**Q.** What about the “Plant response rating, Wheat” value [7, 17] of the same compound?
**A.** The value was 0.

**Q.** What about the “Plant response rating, Wheat” value [7, 16] of the same compound?
**A.** Its value is 0.

**Q.** And the “Pigweed plant response rating” value [8, 13]?
**A.** Its value is 90.

**Q.** What about the “Pigweed plant response rating” value [8, 14] of the same compound?
**A.** The value was 100.

**Q.** What about the “Plant response rating, Pigweed” value [8, 17] of the same compound?
**A.** Its value is 80.

**Q.** What about the “Plant response rating, Pigweed” value [8, 16] of the same compound?
**A.** Its value is 100.

**Q.** And the “Foxtail, Giant plant response rating” value [9, 13]?
**A.** Its value is 60.

**Q.** What about the “Foxtail, Giant plant response rating” value [9, 14] of the same compound?
**A.** Its value is 90.

**Q.** And the “Plant response rating, Foxtail, Giant” value [9, 17]?
**A.** Its value is 80.

**Q.** What about the “Plant response rating, Foxtail, Giant” value [9, 16] of the same compound?
**A.** The value was 100.

**Q.** And the “Plant response rating, Sedge, Umbrella” value [10, 11]?
**A.** Its value is 75.

**Q.** What about the “Plant response rating, Sedge, Umbrella” value [10, 12] of the same compound?
**A.** The value was 85.

**Q.** What about the “Plant response rating, Sedge, Umbrella” value ([10]; Flood, 31 g ai/ha) of the same compound?
**A.** The value was 20.

**Q.** And the “Plant response rating, Sedge, Umbrella” value ([10]; Flood, 62 g ai/ha)?
**A.** The value was 20.

**Q.** What does the source list for `CCc1nn(-c2ccc(C(F)(F)F)cc2)nc1Cn1ccc(C(F)(F)F)n1` [Compound 118]?
**A.** Plant response rating, Ducksalad [1, 11]: 70; Plant response rating, Ducksalad [1, 12]: 70; Plant response rating, Ducksalad ([1]; Flood, 31 g ai/ha): 0; Plant response rating, Ducksalad ([1]; Flood, 62 g ai/ha): 30; Barnyardgrass plant response rating [2, 18]: 30; Barnyardgrass plant response rating [2, 19]: 70; Plant response rating, Barnyardgrass [3, 11]: 50; Plant response rating, Barnyardgrass [3, 12]: 65; Plant response rating, Barnyardgrass ([3]; Flood, 31 g ai/ha): 20; Plant response rating, Barnyardgrass ([3]; Flood, 62 g ai/ha): 30; Crabgrass, Large plant response rating [4, 18]: 90; Crabgrass, Large plant response rating [4, 19]: 100; Plant response rating, Rice (rice (Oryza sativa); [11]): 15; Plant response rating, Rice (rice (Oryza sativa); [12]): 20; Plant response rating, Rice (rice (Oryza sativa); Flood, 31 g ai/ha): 0; Plant response rating, Rice (rice (Oryza sativa); Flood, 62 g ai/ha): 0; Velvetleaf plant response rating [5, 18]: 70; Velvetleaf plant response rating [5, 19]: 10; Morningglory plant response rating [6, 18]: 100; Morningglory plant response rating [6, 19]: 20; Corn plant response rating (corn (Zea mays); [18]): 30; Corn plant response rating (corn (Zea mays); [19]): 20; Wheat plant response rating [7, 18]: 20; Wheat plant response rating [7, 19]: 10; Pigweed plant response rating [8, 18]: 100; Pigweed plant response rating [8, 19]: 100; Foxtail, Giant plant response rating [9, 18]: 60; Foxtail, Giant plant response rating [9, 19]: 100; Plant response rating, Sedge, Umbrella [10, 11]: 70; Plant response rating, Sedge, Umbrella [10, 12]: 75; Plant response rating, Sedge, Umbrella ([10]; Flood, 31 g ai/ha): 40; Plant response rating, Sedge, Umbrella ([10]; Flood, 62 g ai/ha): 65
